These results are taken from publication PMC3365829 (ACS medicinal chemistry letters, 2012).

SMILES strings stand for the structures.

A short description of this data set: In vivo pharmacokinetics in mice. The following applies: mouse, iv, 3 mg/kg.

In the case of `CCCCNc1ncc2c(-c3ccc(F)cc3)nn(C[C@H]3CC[C@H](N)CC3)c2n1` [Compound 43], the clearance came out at 19.5 mL/min/kg.
